The text below walks through data of PMC4764975, “Probing the enzyme kinetics, allosteric modulation and activation of α1- and α2-subunit-containing AMP-activated protein kinase (AMPK) heterotrimeric complexes by pharmacological and physiological activators” (Biochemical Journal, 2016).

Entries after “also recorded” stand apart in the source; their conditions may differ. Like-named read-outs stand apart in the source and are kept apart here.

In assay [1] the target is T1, AMPK α1β1γ1 (Homo sapiens, UniProt P54619+Q13131+Q9Y478).
T1 construct: Recombinant full-length AMPK heterotrimeric complexes α1β1γ1, α1β2γ1, α1β2γ3, α2β1γ1, α2β2γ1 and α2β2γ3 were cloned; 6X-His (N); made in house; host or cells: E. coli BL21-CodonPlus (DE3)-RIPL
T1 sequence (Q13131 whole entry): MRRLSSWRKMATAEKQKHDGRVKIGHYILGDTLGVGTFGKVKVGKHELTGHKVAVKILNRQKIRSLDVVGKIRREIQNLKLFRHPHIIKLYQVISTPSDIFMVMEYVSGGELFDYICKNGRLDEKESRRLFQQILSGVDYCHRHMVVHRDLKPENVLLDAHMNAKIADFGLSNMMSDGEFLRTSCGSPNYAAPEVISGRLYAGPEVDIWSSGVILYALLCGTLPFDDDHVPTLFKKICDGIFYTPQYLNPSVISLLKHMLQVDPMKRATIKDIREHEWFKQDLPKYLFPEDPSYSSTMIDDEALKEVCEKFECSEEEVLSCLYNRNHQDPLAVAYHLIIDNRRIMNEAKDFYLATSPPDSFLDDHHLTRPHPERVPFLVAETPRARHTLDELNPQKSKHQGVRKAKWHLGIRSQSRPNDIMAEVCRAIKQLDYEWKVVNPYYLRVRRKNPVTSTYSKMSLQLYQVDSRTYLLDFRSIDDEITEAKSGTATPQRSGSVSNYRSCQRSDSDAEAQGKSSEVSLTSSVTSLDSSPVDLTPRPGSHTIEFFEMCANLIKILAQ
T1 sequence (Q9Y478 whole entry): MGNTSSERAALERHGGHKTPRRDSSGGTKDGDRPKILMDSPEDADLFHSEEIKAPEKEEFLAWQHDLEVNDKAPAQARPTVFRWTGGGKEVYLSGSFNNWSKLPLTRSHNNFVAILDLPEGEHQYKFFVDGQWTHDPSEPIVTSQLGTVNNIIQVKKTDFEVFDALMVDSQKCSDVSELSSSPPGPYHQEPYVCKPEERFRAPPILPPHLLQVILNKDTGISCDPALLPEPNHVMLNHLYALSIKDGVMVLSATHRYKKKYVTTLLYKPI
T1 sequence (P54619 whole entry): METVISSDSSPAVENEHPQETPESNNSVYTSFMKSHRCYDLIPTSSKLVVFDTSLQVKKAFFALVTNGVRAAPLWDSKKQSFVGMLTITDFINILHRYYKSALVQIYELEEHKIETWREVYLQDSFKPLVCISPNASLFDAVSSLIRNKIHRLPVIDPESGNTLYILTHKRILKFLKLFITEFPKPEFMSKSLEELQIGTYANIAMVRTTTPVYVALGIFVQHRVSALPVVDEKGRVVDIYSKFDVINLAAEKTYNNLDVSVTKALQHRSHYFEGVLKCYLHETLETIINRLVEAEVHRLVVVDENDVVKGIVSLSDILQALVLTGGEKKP
The assay is described as follows: TR-FRET allosteric activation assay. It counts as biochemical. Conditions: 50 nM Cy5-SAMS, ATP at Km. The source says:
(§1) After excitation at 320 nm, the energy from the Europium donor is transferred to the Cy5 acceptor which in turn generates light at 665 nm. The intensity of the signal is proportional to the level of AMPK-mediated Cy5 substrate phosphorylation. […] Non-specific emission obtained from samples containing all the reagents except enzyme was used to normalize the values.
(§2) The basal kinase activity of the pAMPK isoforms in the absence of activator was normalized to zero (baseline) and the changes in the enzyme activity in the presence of activator at different concentrations was compared with the basal activity.
For orientation: TR-FRET usually uses a lanthanide donor and a delayed reading to cut background.

Assay [2] has as its target T2, AMPK α1β2γ1 (Homo sapiens, UniProt O43741+P54619+Q13131).
T2 construct: Recombinant full-length AMPK heterotrimeric complexes α1β1γ1, α1β2γ1, α1β2γ3, α2β1γ1, α2β2γ1 and α2β2γ3 were cloned; 6X-His (N); made in house; host or cells: E. coli BL21-CodonPlus (DE3)-RIPL
The assay is described as follows: TR-FRET allosteric activation assay. It counts as biochemical. Conditions: 50 nM Cy5-SAMS, ATP at Km.
Excerpt: as §1, §2

In assay [3] the target is T3, AMPK α1β2γ3 (Homo sapiens, UniProt O43741+Q13131+Q9UGI9).
T3 construct: Recombinant full-length AMPK heterotrimeric complexes α1β1γ1, α1β2γ1, α1β2γ3, α2β1γ1, α2β2γ1 and α2β2γ3 were cloned; 6X-His (N); made in house; host or cells: E. coli BL21-CodonPlus (DE3)-RIPL
T3 sequence (Q13131 whole entry): as the sequence (Q13131 whole entry) above
T3 sequence (O43741 whole entry): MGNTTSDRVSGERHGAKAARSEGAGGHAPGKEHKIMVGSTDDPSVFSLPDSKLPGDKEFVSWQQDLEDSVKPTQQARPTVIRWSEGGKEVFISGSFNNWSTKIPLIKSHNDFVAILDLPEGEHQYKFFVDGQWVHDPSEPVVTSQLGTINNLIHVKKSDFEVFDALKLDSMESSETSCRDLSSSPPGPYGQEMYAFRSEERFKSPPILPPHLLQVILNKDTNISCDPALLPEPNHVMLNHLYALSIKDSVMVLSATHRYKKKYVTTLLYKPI
T3 sequence (Q9UGI9 whole entry): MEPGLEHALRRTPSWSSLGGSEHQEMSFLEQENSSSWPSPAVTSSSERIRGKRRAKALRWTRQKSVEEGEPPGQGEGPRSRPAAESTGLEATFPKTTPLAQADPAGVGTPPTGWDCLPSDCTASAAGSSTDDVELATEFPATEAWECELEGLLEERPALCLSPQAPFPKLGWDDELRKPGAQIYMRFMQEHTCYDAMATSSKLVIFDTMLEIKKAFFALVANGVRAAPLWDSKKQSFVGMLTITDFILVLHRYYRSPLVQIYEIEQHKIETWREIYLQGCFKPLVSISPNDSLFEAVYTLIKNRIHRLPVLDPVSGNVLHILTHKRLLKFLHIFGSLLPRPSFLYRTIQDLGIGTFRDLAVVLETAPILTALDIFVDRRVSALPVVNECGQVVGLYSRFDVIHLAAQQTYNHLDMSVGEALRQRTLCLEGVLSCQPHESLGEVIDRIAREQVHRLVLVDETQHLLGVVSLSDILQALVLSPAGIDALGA
Put plainly: TR-FRET allosteric activation assay. It counts as biochemical. Conditions: 50 nM Cy5-SAMS, ATP at Km.
Excerpt: as §1, §2

Assay [4] concerns the target T4, AMPK α2β2γ1 (Homo sapiens, UniProt O43741+P54619+P54646).
T4 construct: Recombinant full-length AMPK heterotrimeric complexes α1β1γ1, α1β2γ1, α1β2γ3, α2β1γ1, α2β2γ1 and α2β2γ3 were cloned; 6X-His (N); made in house; host or cells: E. coli BL21-CodonPlus (DE3)-RIPL
The assay is described as follows: TR-FRET allosteric activation assay. The class given is biochemical. The note with it: 50 nM Cy5-SAMS, ATP at Km.
Excerpt: as §1, §2

Assay [5] deals with T5, AMPK α2β2γ3 (Homo sapiens, UniProt O43741+P54646+Q9UGI9).
T5 construct: Recombinant full-length AMPK heterotrimeric complexes α1β1γ1, α1β2γ1, α1β2γ3, α2β1γ1, α2β2γ1 and α2β2γ3 were cloned; 6X-His (N); made in house; host or cells: E. coli BL21-CodonPlus (DE3)-RIPL
T5 sequence (P54646 whole entry): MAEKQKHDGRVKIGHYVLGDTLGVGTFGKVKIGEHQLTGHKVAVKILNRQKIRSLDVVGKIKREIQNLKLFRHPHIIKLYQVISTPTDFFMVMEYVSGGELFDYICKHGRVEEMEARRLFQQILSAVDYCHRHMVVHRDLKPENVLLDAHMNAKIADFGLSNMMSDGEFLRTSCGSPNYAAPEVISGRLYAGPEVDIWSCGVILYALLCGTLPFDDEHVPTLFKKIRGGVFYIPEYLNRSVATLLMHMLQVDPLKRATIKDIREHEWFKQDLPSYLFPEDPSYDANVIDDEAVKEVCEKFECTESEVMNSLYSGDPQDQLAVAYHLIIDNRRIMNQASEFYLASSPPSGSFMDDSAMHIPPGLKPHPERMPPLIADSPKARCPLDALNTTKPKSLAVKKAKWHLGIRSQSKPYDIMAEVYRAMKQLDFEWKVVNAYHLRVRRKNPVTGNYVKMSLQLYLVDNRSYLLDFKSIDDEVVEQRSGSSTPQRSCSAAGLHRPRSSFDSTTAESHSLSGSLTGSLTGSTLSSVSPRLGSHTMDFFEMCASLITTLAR
T5 sequence (O43741 whole entry): as the sequence (O43741 whole entry) above
T5 sequence (Q9UGI9 whole entry): as the sequence (Q9UGI9 whole entry) above
Put plainly: TR-FRET allosteric activation assay. The note with it: 50 nM Cy5-SAMS, ATP at Km. It counts as biochemical.
Excerpt: as §1, §2

For assay [6], the target named is T1, AMPK α1β1γ1. The assay is described as follows: Protection of pAMPK α-pThr172/174 from PP2Aα (slot-blot ELISA). The class given is biochemical. Here is the method: (§3) Test compound was previously diluted in half-log increments, starting at 40 μM in 100% DMSO, diluted 10-fold in assay buffer and dispensed into a microtitre plate. After 15 min at room temperature, phosphatase was added to the mixture and the reaction was allowed to proceed for 60 min at room temperature. Reactions were quenched by the addition of okadaic acid, and transferred to PVDF membrane using the slot-blot apparatus and subjected to immunoblotting. Phosphatase sensitivity was similarly assessed by subjecting pAMPK to a phosphatase (PP2Aα) treatment using various concentrations and incubation times. The concentration of phosphatase was expressed as nmol of PP2Aα per minute per nmol of pAMPK in the reaction.
(§4) The membrane was blocked with Western Blot Blocking Buffer Reagent (Li-Cor) for 3–4 h at room temperature. […] Following the wash step, goat anti-rabbit 800CW (Rockland) at 1:10000 dilution was used as a secondary antibody. Blots were visualized using the Li-Cor Odyssey infrared imaging system and signal quantification was performed using the Odyssey software.
(§5) Data are mean (n=2), and curves were generated using best-fit values.
(In an ELISA, binding on a coated surface is turned into a signal by an enzyme label.)

The target of assay [7] is T2, AMPK α1β2γ1. The assay is described as above. It counts as biochemical. The protocol:
as §3, §4, §5

Assay [8] addresses T3, AMPK α1β2γ3. The description is as above. The class given is biochemical. The protocol: as §3, §4, §5
For a further assay, the target named is T6, AMPK α2β1γ1 (Homo sapiens, UniProt P54619+P54646+Q9Y478).
T6 construct: Recombinant full-length AMPK heterotrimeric complexes α1β1γ1, α1β2γ1, α1β2γ3, α2β1γ1, α2β2γ1 and α2β2γ3 were cloned; 6X-His (N); made in house; host or cells: E. coli BL21-CodonPlus (DE3)-RIPL
T6 sequence (P54646 whole entry): as the sequence (P54646 whole entry) above
T6 sequence (Q9Y478 whole entry): as the sequence (Q9Y478 whole entry) above
T6 sequence (P54619 whole entry): as the sequence (P54619 whole entry) above
The assay is described as above. The class given is biochemical. The protocol: as §3, §4, §5

Assay [9] addresses T4, AMPK α2β2γ1. The assay is described as above. It counts as biochemical. Here is the method: as §3, §4, §5
Assay [10] deals with T5, AMPK α2β2γ3. The description is as above. It counts as biochemical. Here is the method:
as §3, §4, §5

Assay [11] deals with T7, BAP-tagged AMPK α1β1γ1 (Homo sapiens, UniProt P54619+Q13131+Q9Y478).
T7 construct: Recombinant full-length AMPK heterotrimeric complexes α1β1γ1, α1β2γ1, α1β2γ3, α2β1γ1, α2β2γ1 and α2β2γ3 were cloned; 6X-His (N); AviTag (BAP); made in house; host or cells: E. coli (co-expressed with BirA)
T7 sequence (Q13131 whole entry): as the sequence (Q13131 whole entry) above
T7 sequence (Q9Y478 whole entry): as the sequence (Q9Y478 whole entry) above
T7 sequence (P54619 whole entry): as the sequence (P54619 whole entry) above
The assay is described as follows: SPR direct binding (Biacore). The note with it: in the presence of 150 μM AMP, n=1, read-out: KD. The protocol:
(§6) SPR experiments were performed on a Biacore™ 3000 instrument (GE Healthcare). BAP-tagged AMPK isoform (α1β1γ1, α1β2γ1, α2β2γ1, α2β2γ3) was captured on to a streptavidin sensor chip to levels ranging from 4000 to 6000 RU. […] Binding responses were processed using Scrubber 2 (BioLogic Software Pty Ltd) to zero, x-align, double reference and corrected for excluded volume effect of DMSO in the data. […] The compound was injected at a flow rate of 50 μl/min with total contact time of 120 s and dissociation time of 600 s. Rate parameters (kon, koff) and corresponding dissociation constant(KD=koff/kon) were determined by globally fitting all of the experimental data to a simple 1:1 interaction model using Biaeval software (GE Healthcare). To determine nt binding, 10 concentrations with 2-fold dilutions were tested in duplicate. The highest concentration tested was 2 mM. The compound was injected at a flow rate of 50 μl/min with total contact time of 120 s and dissociation time of 300 s. Equilibrium dissociation constant (KD) was determined using a steady-state affinity algorithm available within Scrubber.
(§7) We then compared the binding of nts (AMP, ADP and ATP) to α1β1γ1, α1β2γ1, α2β2γ1 and α2β2γ3 isoforms in the presence and absence of Mg^2+ and Stau, using SPR technique. […]

In a further assay the target is T8, BAP-tagged AMPK α2β2γ1 (Homo sapiens, UniProt O43741+P54619+P54646).
T8 construct: Recombinant full-length AMPK heterotrimeric complexes α1β1γ1, α1β2γ1, α1β2γ3, α2β1γ1, α2β2γ1 and α2β2γ3 were cloned into a tricistronic vector system; 6X-His (N); made in house; host or cells: E. coli BL21-CodonPlus (DE3)-RIPL, co-expressed with BirA
T8 sequence (P54646 whole entry): as the sequence (P54646 whole entry) above
T8 sequence (O43741 whole entry): as the sequence (O43741 whole entry) above
T8 sequence (P54619 whole entry): as the sequence (P54619 whole entry) above
Put plainly: SPR direct binding (Biacore). The note with it: in the presence of 150 μM AMP, 37-1000 nM. The protocol:
as §6, §7

Assay [12] concerns the target T7, BAP-tagged AMPK α1β1γ1. Details: method as in PMID 25066137. Conditions: reported previously; cited from earlier work.
Assay [13] deals with AMPK heterotrimeric complex α1β2γ1 (UniProt Q13131).
AMPK heterotrimeric complex α1β2γ1, sequence (Q13131 whole entry, chain 1 of 3): as the sequence (Q13131 whole entry) above
AMPK heterotrimeric complex α1β2γ1, sequence (O43741 whole entry, chain 2 of 3, further chain): as the sequence (O43741 whole entry) above
AMPK heterotrimeric complex α1β2γ1, sequence (P54619 whole entry, chain 3 of 3, further chain): as the sequence (P54619 whole entry) above
Assay [14] deals with AMPK heterotrimeric complex α2β2γ1 (UniProt P54646).
AMPK heterotrimeric complex α2β2γ1, sequence (P54646 whole entry, chain 1 of 3): as the sequence (P54646 whole entry) above
AMPK heterotrimeric complex α2β2γ1, sequence (O43741 whole entry, chain 2 of 3, further chain): as the sequence (O43741 whole entry) above
AMPK heterotrimeric complex α2β2γ1, sequence (P54619 whole entry, chain 3 of 3, further chain): as the sequence (P54619 whole entry) above
Where [15] appears, read: activator concentration for half-maximal protection of pThr172/174, 10 nM AMPK, 40 nM PP2Aα, read-out: Protection pEC50 (converted).
[16] abbreviates: extent of protection (Figure 7).

T4 sequence (P54646 whole entry): as the sequence (P54646 whole entry) above
T4 sequence (O43741 whole entry): as the sequence (O43741 whole entry) above
T4 sequence (P54619 whole entry): as the sequence (P54619 whole entry) above
T2 sequence (Q13131 whole entry): as the sequence (Q13131 whole entry) above
T2 sequence (O43741 whole entry): as the sequence (O43741 whole entry) above
T2 sequence (P54619 whole entry): as the sequence (P54619 whole entry) above

For the compound `N#Cc1c(O)c2c(-c3ccc(-c4ccccc4O)cc3)csc2[nH]c1=O` [A769662], the AC50 is 0.0722 µM at AMPK α1β1γ1 [1]; over 40 µM at AMPK α1β2γ1 [2]; over 40 µM on AMPK α1β2γ3 [3]; over 40 µM on AMPK α2β2γ1 [4]; over 40 µM on AMPK α2β2γ3 [5]. In addition, the results for the “enhanced protection of pThr172 compared with AMP” value at AMPK α1β1γ1 [6] and at AMPK α2β1γ1 were 10 fold and 3 fold, respectively. The EC50 at AMPK α1β1γ1 [6] (setting [15]) is 0.046 µM; on AMPK α1β2γ1 [7] (setting [15]), 4.7 µM; at AMPK α1β2γ3 [8] (setting [15]) it was over 40 µM; on AMPK α2β2γ1 [9] (setting [15]), 2.32 µM; at AMPK α2β2γ3 [10] (setting [15]), 5.6 µM. In addition, the “protection of α-pThr172/174 from PP2Aα” value on AMPK α1β1γ1 [6] (setting [16]), on AMPK α1β2γ1 [7] (setting [16]), on AMPK α1β2γ3 [8] (setting [16]), at AMPK α2β1γ1 (setting [16]), on AMPK α2β2γ1 [9] (setting [16]) and on AMPK α2β2γ3 [10] (setting [16]) was over 70% throughout. In addition, the Kd is 0.03 µM on BAP-tagged AMPK α1β1γ1 [11] and 0.048 µM at BAP-tagged AMPK α1β1γ1 [12]. Besides, the SPR binding result on BAP-tagged AMPK α2β2γ1 was “negligible; also recorded: could not detect any binding”.

Consider SAMS peptide, for which the Km for SAMS peptide (radiometric kinase assay, fixed ATP, no AMP) in [13] came to 32.3 µM; in assay [14] it was 108 µM.

The term AC50 denotes the concentration at which the activity in the assay is half-maximal. Lower therefore signals greater potency. The term Kd denotes the free concentration of one partner at which half of the binding sites on the other are occupied at equilibrium, for simple one-to-one binding.
